Read-outs that look alike come from different tables or passages of the source.
Columns and labels:
A2780 cells = assay: Colorimetric survival (MTT) assay after photo-irradiation, normoxia; type: cell-based; conditions: Homo sapiens, A2780, 3 h incubation
Description: (§1) All cell lines unless otherwise stated were obtained from the American Type Culture Collection. HeLa, MRC5, HT-1080, MDA-MB-231, MCF-7 and T47-D cells were cultured in minimum essential medium (MEM) supplemented with 10% (v v^−1) foetal calf serum (FCS), 1% (v v^−1) non-essential amino acids, 50 U ml^−1 penicillin, 50 μg ml^−1 streptomycin, 20 mM HEPES and 1% (v v^−1) L-glutamine (Gibco-BRL). SW480, SW620 (obtained from Professor D Croke, Royal College of Surgeons, Dublin), A2780 and A2780cp70 cells (Obtained from Professor R Brown, Cancer Research UK, Beatson Laboratories, Glasgow) were cultured in RPMI-1640 medium plus the above-mentioned supplements. All cells were maintained in 5% CO2 (v v^−1) and 21% O2 (v v^−1) at 37°C unless otherwise stated.
(§2) Cells were seeded in 96-well flat-bottomed microtitre plates (5000 cells well^−1) and incubated at 37°C in a 5% CO2 incubator for 24 h. Cells were then incubated with varying concentrations of photosensitiser (1 × 10^−9 to 1 × 10^−4 M) in the dark for 3 h at 37°C. The ADPM compound-laden medium was then removed, the cells were washed with PBS and fresh culture medium was added to each well. This was followed by light irradiation with a broad-spectrum red light source (600–750 nm) via a Waldmann PDT1200L light delivery system. For this study, fluences (light exposures) of either 8 or 16 J cm^−2, at a dose rate of 80 mW cm^−2, were used. Following irradiation, the cells were incubated for a further 48 h before being assessed for cell viability by a standard MTT assay (Sigma). The subsequent colour change produced by viable cells was quantified using a plate reader (VICTOR^2 1420 multilabel HTS counter, Wallac). […] The dark toxicity of each compound was also assessed.
(§3) Prism ([…]) was used to graph the data obtained from the MTT assays and the uptake/clearance experiments. This program allows nonlinear regression analysis and the generation of sigmoidal dose–response curves. Prism also automatically calculates EC50 values. Statistical analysis was performed using the ANOVA test (Prism). Significant differences were detected using the Bonferroni multiple comparison test. P-values <0.05 were considered statistically significant.

A2780cp70 cells = assay: as above; type: cell-based; conditions: Homo sapiens, A2780/CP70, A2780cp70, 3 h incubation
Description: as §1, §2, §3

HT-1080 cells = assay: as above; type: cell-based; conditions: Homo sapiens, HT-1080, 3 h incubation
Description: as §1, §2, §3

HeLa cells = assay: as above; type: cell-based; conditions: Homo sapiens, normoxia 21% oxygen, 3 h incubation
Description: as §1, §2, §3

MCF-7 cells = assay: as above; type: cell-based; conditions: Homo sapiens, MCF7, MCF-7, 3 h incubation
Description: as §1, §2, §3

MDA-MB-231 cells = assay: as above; type: cell-based; conditions: Homo sapiens, MDA-MB-231, 3 h incubation
Description: as §1, §2, §3

MRC-5 cells = assay: as above; type: cell-based; conditions: Homo sapiens, MRC5, MRC-5, normoxia 21% oxygen, 3 h incubation
Description: as §1, §2, §3

SW480 cells = assay: as above; type: cell-based; conditions: Homo sapiens, SW480, 3 h incubation
Description: as §1, §2, §3

SW620 cells = assay: as above; type: cell-based; conditions: Homo sapiens, SW-620, SW620, 3 h incubation
Description: as §1, §2, §3

T47-D cells = assay: as above; type: cell-based; conditions: Homo sapiens, T47D, 3 h incubation
Description: as §1, §2, §3

human tumour cell lines = assay: Light-induced toxicity (MTT) assays over a broad range of cell lines; type: cell-based; conditions: for EC50: Homo sapiens, read-out: EC50 values, range between the different cell lines; for EC50 values, light-induced toxicity (in words): broad range of human tumour cell lines
Description: as §1, §2, §3

MRC5 cells = assay: Flow cytometric assessment of apoptosis (Annexin-V/PI); type: cell-based, human
Description: Evaluation of apoptotic and necrotic cell populations was achieved using the ApoTarget Annexin-V FITC Apoptosis kit (BioSource International, Inc.). Cells (2.0 × 10^5) were seeded into 25 cm^2 flasks and treated with either ADPM01 or ADPM06 at respective EC50 or 10-fold EC50 concentration levels for 3 h, followed by irradiation with red light at 16 J cm^−2, as described above. Subsequently, cells were incubated for 4 and 16 h, with floating and adherent cells being collected at each time point by centrifugation and then stained with Annexin-V and propidium iodide (PI) as per the manufacturer's instructions. The percentage of cells at different phases of cell death, namely nonapoptotic (Annexin-V^−/PI^−), early apoptotic (Annexin-V^+/PI^−), and necrotic or late-stage apoptotic (Annexin-V^+/PI^+), was quantified using a EPICS XL-MCL flow cytometer (Coulter) and analysed using System II software, with at least 5000 cells being analysed for each run.

[1] = parameters: method as in Gorman et al, 2004; conditions: ref Gorman et al, 2004, cited from earlier work; for strong absorbance band: formulated in CrEL/PBS
[2] = 0 J cm^−2, read-out: EC50 (M) (dark)
[3] = 8 J cm^−2, read-out: EC50 (M) (8 J cm^−2)
[4] = 16 J cm^−2, read-out: EC50 (M) (16 J cm^−2)
[5] = 8 J cm^−2, all cell lines of Table 1
[6] = 16 J cm^−2, all cell lines of Table 1
[7] = MRC5, 10-fold EC50 concentration, 16 h post-irradiation
[8] = MRC5, EC50 concentration, 4 h post-irradiation

For `F[B-]1(F)n2c(-c3ccccc3)cc(-c3ccccc3)c2N=C2C(c3ccccc3)=CC(c3ccccc3)=[N+]21` [ADPM01], the EC50 (A2780 cells; [2]) was > 0.0001 M, the EC50 (A2780 cells; [3]) was 5.1e-06 M and the EC50 (A2780 cells; [4]) was 4.5e-06 M. The EC50 (A2780cp70 cells; [2]) was > 0.0001 M, the EC50 (A2780cp70 cells; [3]) was 6.8e-06 M and the EC50 (A2780cp70 cells; [4]) was 2.8e-06 M. For the same compound, the EC50 (HT-1080 cells; [2]) was > 0.0001 M, the EC50 (HT-1080 cells; [3]) was 3.4e-05 M and the EC50 (HT-1080 cells; [4]) was 2.2e-05 M. For the same compound, the EC50 (HeLa cells; [2]) was 2.7e-05 M, the EC50 (HeLa cells; [3]) was 2.8e-06 M and the EC50 (HeLa cells; [4]) was 9.2e-07 M. The EC50 (MCF-7 cells; [2]) was > 0.0001 M, the EC50 (MCF-7 cells; [3]) was 3.4e-06 M and the EC50 (MCF-7 cells; [4]) was 1.9e-06 M. It also gave an EC50 (MDA-MB-231 cells; [2]) of 1.2e-05 M, an EC50 (MDA-MB-231 cells; [3]) of 5.6e-06 M and an EC50 (MDA-MB-231 cells; [4]) of 2.6e-07 M. For the same compound, the EC50 (MRC-5 cells; [2]) was > 0.0001 M, the EC50 (MRC-5 cells; [3]) was 3.1e-06 M and the EC50 (MRC-5 cells; [4]) was 5e-07 M. For the same compound, the EC50 (SW480 cells; [2]) was > 0.0001 M, the EC50 (SW480 cells; [3]) was 7.6e-06 M and the EC50 (SW480 cells; [4]) was 8e-07 M. The EC50 (SW620 cells; [2]) was > 0.0001 M, the EC50 (SW620 cells; [3]) was 5.6e-06 M and the EC50 (SW620 cells; [4]) was 2.8e-06 M. The EC50 (T47-D cells; [2]) was > 0.0001 M, the EC50 (T47-D cells; [3]) was 5.6e-06 M and the EC50 (T47-D cells; [4]) was 5.3e-06 M. The EC50 (human tumour cell lines; [5]) was 2800 to 34000 nM, the EC50 (human tumour cell lines; [6]) was 260 to 22000 nM and the “EC50 values, light-induced toxicity (in words)” value (human tumour cell lines) was “micro-molar range”. The “cells in lower left quadrant (Annexin-V−/PI−, nonapoptotic)” value (shortened to “cells in lower left quadrant”) (MRC5 cells; [7]) was 26.9%, the “cells in lower right quadrant (Annexin-V+/PI−, early apoptotic)” value (“cells in lower right quadrant” below) (MRC5 cells; [7]) was 31.8% and the “cells in upper left quadrant (PI+, Annexin-V−)” value (from here on “cells in upper left quadrant”) (MRC5 cells; [7]) was 0.5%. For the same compound, the “cells in upper right quadrant (Annexin-V+/PI+, necrotic or late-stage apoptotic)” value (from here on “cells in upper right quadrant”) (MRC5 cells; [7]) was 40.8%, the “cells in lower left quadrant” value (MRC5 cells; [8]) was 94.1% and the “cells in lower right quadrant” value (MRC5 cells; [8]) was 3.82%. For the same compound, the “cells in upper left quadrant” value (MRC5 cells; [8]) was 0.84%, the “cells in upper right quadrant” value (MRC5 cells; [8]) was 1.28% and the strong absorbance band [1] was 658 nm. For the same compound, the “fluorescence quantum yield (Φf)” value [1] was 0.34.

For `COc1ccc(C2=[N+]3C(=Nc4c(-c5ccccc5)c(Br)c(-c5ccc(OC)cc5)n4[B-]3(F)F)C(c3ccccc3)=C2Br)cc1` [ADPM06], the EC50 (A2780 cells; [3]) was 1e-07 M, the EC50 (A2780 cells; [4]) was 3.5e-08 M and the EC50 (A2780cp70 cells; [3]) was 6.2e-08 M. The EC50 (A2780cp70 cells; [4]) was 2.7e-08 M, the EC50 (HT-1080 cells; [3]) was 7.9e-08 M and the EC50 (HT-1080 cells; [4]) was 3.7e-08 M. The EC50 (HeLa cells; [2]) was > 0.0001 M, the EC50 (HeLa cells; [3]) was 6.3e-08 M and the EC50 (HeLa cells; [4]) was 4.1e-08 M. It also gave an EC50 (MCF-7 cells; [3]) of 1.2e-07 M, an EC50 (MCF-7 cells; [4]) of 7.5e-08 M and an EC50 (MDA-MB-231 cells; [3]) of 1.4e-07 M. The EC50 (MDA-MB-231 cells; [4]) was 7.5e-08 M, the EC50 (MRC-5 cells; [2]) was > 0.0001 M and the EC50 (MRC-5 cells; [3]) was 3.7e-08 M. It also gave an EC50 (MRC-5 cells; [4]) of 1.4e-08 M, an EC50 (SW480 cells; [3]) of 5.4e-06 M and an EC50 (SW480 cells; [4]) of 4.2e-08 M. It also gave an EC50 (SW620 cells; [3]) of 7.5e-08 M, an EC50 (SW620 cells; [4]) of 6e-08 M and an EC50 (T47-D cells; [3]) of 1.6e-06 M. For the same compound, the EC50 (T47-D cells; [4]) was 6.3e-07 M, the EC50 (human tumour cell lines; [5]) was 37 to 5400 nM and the EC50 (human tumour cell lines; [6]) was 14 to 630 nM. For the same compound, the “EC50 values, light-induced toxicity (in words)” value (human tumour cell lines) was “nano-molar range”, the “cells in lower left quadrant” value (MRC5 cells; [7]) was 28.6% and the “cells in lower right quadrant” value (MRC5 cells; [7]) was 45.4%. The “cells in upper left quadrant” value (MRC5 cells; [7]) was 0.7%, the “cells in upper right quadrant” value (MRC5 cells; [7]) was 25.3% and the “cells in lower left quadrant” value (MRC5 cells; [8]) was 95.9%. The “cells in lower right quadrant” value (MRC5 cells; [8]) was 2.84%, the “cells in upper left quadrant” value (MRC5 cells; [8]) was 0.38% and the “cells in upper right quadrant” value (MRC5 cells; [8]) was 0.88%. For the same compound, the strong absorbance band [1] was 683 nm and the “fluorescence quantum yield (Φf)” value [1] was 0.1.

Reference: paper PMC2362044, “A potent nonporphyrin class of photodynamic therapeutic agent: cellular localisation, cytotoxic potential and influence of hypoxia” (British Journal of Cancer, 2005)
